Laboratory results from PubChem BioAssay (NCI).
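Growth conditions: 96-well plates. Treatment: test compound, 48 hours, 5 concentrations. Analysis: linear interpolation between bracketing concentrations; unreached endpoints set to highest concentration. At the GI50, growth is halved. Definition used: TGI = concentration required for complete inhibition of growth.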

Legend:
Experiment in all cases: NCI tumour cell line growth inhibition, 48 h
786-0 renal = tested on: 786-0 renal
A498 renal = tested on: A498 renal
ACHN renal = tested on: ACHN renal
BT-549 breast = tested on: BT-549 breast
CAKI-1 renal = tested on: CAKI-1 renal
CCRF-CEM leukemia = tested on: CCRF-CEM leukemia
COLO 205 colon = tested on: COLO 205 colon
DU-145 prostate = tested on: DU-145 prostate
EKVX NSCLC = tested on: EKVX NSCLC
HCC-2998 colon = tested on: HCC-2998 colon
HCT-116 colon = tested on: HCT-116 colon
HCT-15 colon = tested on: HCT-15 colon
HL-60(TB) leukemia = tested on: HL-60(TB) leukemia
HOP-62 NSCLC = tested on: HOP-62 NSCLC
HOP-92 NSCLC = tested on: HOP-92 NSCLC
HS 578T breast = tested on: HS 578T breast
IGROV1 ovarian = tested on: IGROV1 ovarian
K-562 leukemia = tested on: K-562 leukemia
KM12 colon = tested on: KM12 colon
LOX IMVI melanoma = tested on: LOX IMVI melanoma
MCF7 breast = tested on: MCF7 breast
MDA-MB-231 breast = tested on: MDA-MB-231 breast
MDA-MB-435 = tested on: MDA-MB-435
MOLT-4 leukemia = tested on: MOLT-4 leukemia
NCI-H226 lung = tested on: NCI-H226 lung
NCI-H23 lung = tested on: NCI-H23 lung
NCI/ADR-RES ovarian = tested on: NCI/ADR-RES ovarian
OVCAR-3 ovarian = tested on: OVCAR-3 ovarian
OVCAR-5 ovarian = tested on: OVCAR-5 ovarian
PC-3 prostate = tested on: PC-3 prostate
RPMI-8226 leukemia = tested on: RPMI-8226 leukemia
RXF 393 renal = tested on: RXF 393 renal
SF-268 CNS = tested on: SF-268 CNS
SF-295 CNS = tested on: SF-295 CNS
SF-539 CNS = tested on: SF-539 CNS
SK-MEL-2 melanoma = tested on: SK-MEL-2 melanoma
SK-MEL-28 melanoma = tested on: SK-MEL-28 melanoma
SK-MEL-5 melanoma = tested on: SK-MEL-5 melanoma
SK-OV-3 ovarian = tested on: SK-OV-3 ovarian
SN12C renal = tested on: SN12C renal
SNB-75 CNS = tested on: SNB-75 CNS
SW-620 colon = tested on: SW-620 colon
T-47D breast = tested on: T-47D breast
U251 CNS = tested on: U251 CNS
UACC-257 melanoma = tested on: UACC-257 melanoma
UACC-62 melanoma = tested on: UACC-62 melanoma
UO-31 renal = tested on: UO-31 renal
A549 NSCLC = tested on: A549 NSCLC
HT29 colon = tested on: HT29 colon
M14 melanoma = tested on: M14 melanoma
MALME-3M melanoma = tested on: MALME-3M melanoma
NCI-H460 lung = tested on: NCI-H460 lung
OVCAR-4 ovarian = tested on: OVCAR-4 ovarian
OVCAR-8 ovarian = tested on: OVCAR-8 ovarian
SNB-19 CNS = tested on: SNB-19 CNS
SR leukemia = tested on: SR leukemia
TK-10 renal = tested on: TK-10 renal

COc1ccc(C2=NN(C(C)=O)C(c3cn(-c4ccccc4)nc3-c3ccc(Cl)cc3)C2)cc1 (stereo not drawn)
GI50 (786-0 renal): 30.7 µM | TGI (786-0 renal): > 100 µM | GI50 (A498 renal): 99.5 µM | TGI (A498 renal): > 100 µM | GI50 (ACHN renal): > 100 µM | TGI (ACHN renal): > 100 µM | GI50 (BT-549 breast): > 100 µM | TGI (BT-549 breast): > 100 µM | GI50 (CAKI-1 renal): > 100 µM | TGI (CAKI-1 renal): > 100 µM | GI50 (CCRF-CEM leukemia): > 100 µM | TGI (CCRF-CEM leukemia): > 100 µM | GI50 (COLO 205 colon): > 100 µM | TGI (COLO 205 colon): > 100 µM | GI50 (DU-145 prostate): > 100 µM | TGI (DU-145 prostate): > 100 µM | GI50 (EKVX NSCLC): > 100 µM | TGI (EKVX NSCLC): > 100 µM | GI50 (HCC-2998 colon): > 100 µM | TGI (HCC-2998 colon): > 100 µM | GI50 (HCT-116 colon): > 100 µM | TGI (HCT-116 colon): > 100 µM | TGI (HCT-15 colon): > 100 µM | GI50 (HL-60(TB) leukemia): > 100 µM | TGI (HL-60(TB) leukemia): > 100 µM | GI50 (HOP-62 NSCLC): > 100 µM | TGI (HOP-62 NSCLC): > 100 µM | GI50 (HOP-92 NSCLC): 2.4 µM | TGI (HOP-92 NSCLC): > 100 µM | GI50 (HS 578T breast): 4.88 µM | TGI (HS 578T breast): > 100 µM | GI50 (IGROV1 ovarian): > 100 µM | TGI (IGROV1 ovarian): > 100 µM | GI50 (K-562 leukemia): > 100 µM | TGI (K-562 leukemia): > 100 µM | GI50 (KM12 colon): > 100 µM | TGI (KM12 colon): > 100 µM | GI50 (LOX IMVI melanoma): > 100 µM | TGI (LOX IMVI melanoma): > 100 µM | GI50 (MCF7 breast): > 100 µM | TGI (MCF7 breast): > 100 µM | GI50 (MDA-MB-231 breast): > 100 µM | TGI (MDA-MB-231 breast): > 100 µM | GI50 (MDA-MB-435): > 100 µM | TGI (MDA-MB-435): > 100 µM | GI50 (MOLT-4 leukemia): > 100 µM | TGI (MOLT-4 leukemia): > 100 µM | GI50 (NCI-H226 lung): > 100 µM | TGI (NCI-H226 lung): > 100 µM | GI50 (NCI-H23 lung): > 100 µM | TGI (NCI-H23 lung): > 100 µM | GI50 (NCI/ADR-RES ovarian): > 100 µM | TGI (NCI/ADR-RES ovarian): > 100 µM | GI50 (OVCAR-3 ovarian): > 100 µM | TGI (OVCAR-3 ovarian): > 100 µM | GI50 (OVCAR-5 ovarian): > 100 µM | TGI (OVCAR-5 ovarian): > 100 µM | GI50 (PC-3 prostate): > 100 µM | TGI (PC-3 prostate): > 100 µM | GI50 (RPMI-8226 leukemia): > 100 µM | TGI (RPMI-8226 leukemia): > 100 µM | GI50 (RXF 393 renal): 10.5 µM | TGI (RXF 393 renal): > 100 µM | GI50 (SF-268 CNS): 6.2 µM | TGI (SF-268 CNS): > 100 µM | GI50 (SF-295 CNS): 13.2 µM | TGI (SF-295 CNS): > 100 µM | GI50 (SF-539 CNS): 25.4 µM | TGI (SF-539 CNS): > 100 µM | GI50 (SK-MEL-2 melanoma): > 100 µM | TGI (SK-MEL-2 melanoma): > 100 µM | GI50 (SK-MEL-28 melanoma): > 100 µM | TGI (SK-MEL-28 melanoma): > 100 µM | GI50 (SK-MEL-5 melanoma): > 100 µM | TGI (SK-MEL-5 melanoma): > 100 µM | GI50 (SK-OV-3 ovarian): 4.64 µM | TGI (SK-OV-3 ovarian): > 100 µM | GI50 (SN12C renal): > 100 µM | TGI (SN12C renal): > 100 µM | GI50 (SNB-75 CNS): 9.08 µM | TGI (SNB-75 CNS): > 100 µM | TGI (SW-620 colon): > 100 µM | GI50 (T-47D breast): > 100 µM | TGI (T-47D breast): > 100 µM | GI50 (U251 CNS): 7.44 µM | TGI (U251 CNS): > 100 µM | GI50 (UACC-257 melanoma): > 100 µM | TGI (UACC-257 melanoma): > 100 µM | GI50 (UACC-62 melanoma): > 100 µM | TGI (UACC-62 melanoma): > 100 µM | GI50 (UO-31 renal): > 100 µM | TGI (UO-31 renal): > 100 µM

O=C(OC(=C(c1ccccc1)c1ccccc1)N1CCCC1=S)C(c1ccccc1)c1ccccc1
TGI (786-0 renal): > 10 µM | TGI (A498 renal): > 10 µM | TGI (A549 NSCLC): > 10 µM | TGI (ACHN renal): > 10 µM | TGI (BT-549 breast): > 10 µM | TGI (CAKI-1 renal): > 10 µM | TGI (CCRF-CEM leukemia): > 10 µM | TGI (COLO 205 colon): 5.5 µM | TGI (DU-145 prostate): > 10 µM | TGI (EKVX NSCLC): > 10 µM | TGI (HCC-2998 colon): > 10 µM | TGI (HCT-116 colon): > 10 µM | TGI (HCT-15 colon): > 10 µM | TGI (HL-60(TB) leukemia): > 10 µM | TGI (HOP-62 NSCLC): > 10 µM | TGI (HS 578T breast): > 10 µM | TGI (HT29 colon): > 10 µM | TGI (IGROV1 ovarian): > 10 µM | TGI (K-562 leukemia): > 10 µM | TGI (KM12 colon): > 10 µM | TGI (LOX IMVI melanoma): > 10 µM | TGI (M14 melanoma): > 10 µM | TGI (MALME-3M melanoma): > 10 µM | TGI (MCF7 breast): > 10 µM | TGI (MDA-MB-231 breast): > 10 µM | TGI (MDA-MB-435): > 10 µM | TGI (MOLT-4 leukemia): > 10 µM | TGI (NCI-H226 lung): > 10 µM | TGI (NCI-H23 lung): > 10 µM | TGI (NCI-H460 lung): > 10 µM | TGI (NCI/ADR-RES ovarian): > 10 µM | TGI (OVCAR-3 ovarian): > 10 µM | TGI (OVCAR-4 ovarian): > 10 µM | TGI (OVCAR-5 ovarian): > 10 µM | TGI (OVCAR-8 ovarian): > 10 µM | TGI (PC-3 prostate): > 10 µM | TGI (RPMI-8226 leukemia): > 10 µM | TGI (RXF 393 renal): > 10 µM | TGI (SF-268 CNS): > 10 µM | TGI (SF-295 CNS): > 10 µM | TGI (SF-539 CNS): > 10 µM | TGI (SK-MEL-2 melanoma): > 10 µM | TGI (SK-MEL-28 melanoma): > 10 µM | TGI (SK-MEL-5 melanoma): > 10 µM | TGI (SK-OV-3 ovarian): > 10 µM | TGI (SN12C renal): > 10 µM | TGI (SNB-19 CNS): > 10 µM | TGI (SNB-75 CNS): > 10 µM | TGI (SR leukemia): > 10 µM | TGI (SW-620 colon): > 10 µM | TGI (T-47D breast): > 10 µM | TGI (TK-10 renal): > 10 µM | TGI (U251 CNS): > 10 µM | TGI (UACC-257 melanoma): > 10 µM | TGI (UACC-62 melanoma): > 10 µM | TGI (UO-31 renal): > 10 µM
